{"source": "patent US20080260639A1", "about": "“PREPARATION AND METHOD UTILIZING RADIOLABELED CHLOROTOXIN” (priority 2004, published 2008)", "key": {"[1]": {"assay": "Storage stability of 1-131 Hippuran: percent remaining bound", "assay_type": "physicochemical", "conditions": "1 mCi per vial", "method": "As another example, 1-131 Hippuran was prepared. The 1-131 Hippuran was prepared as follows: 9 vials were prepared of 1-131 Hippuran in solution with a radioactive concentration of MIBG of 1 mCi per vial. Each vial had 4 cc. The 1-131 in seven of those vials was then stabilized and lyophilized according to the process described in this invention. One vial was frozen and maintained at a temperature of −10 degrees, and another vial was maintained room temperature. Room temperature was selected because Hippuran is thought to be stable at room temperature even in conjunction with a radioisotope. […]"}, "[2]": {"assay": "Storage stability of I-131 MIBG: percent of iodine remaining bound to the MIBG", "assay_type": "physicochemical", "conditions": "for percent of iodine remaining bound to the MIBG: 1 mCi per vial", "text": "The radioactive diagnostic radiopharmaceutical in this invention requires no further cold or refrigerated storage, including with respect to shipping, subsequent to stabilization. The lyophilized radiopharmaceutical composition is reconstituted “on site” for administration to patients by the addition of a suitable diluent to bring the radiopharmaceutical complex into solution at the time of administration to the patient. For administration, the I-123 labeled MIBG in the vial must be reconstituted. Because of the minute quantity of material, the vial of radionuclide complex, in the preferred mode the I-123 labeled MIBG will appear empty. The MIBG ligand is stable for several days because of the absence of water which is the primary substance from which free radicals are generated by gamma ray collisions with water molecules. The gamma rays are being emitted by the radionuclide, that is the I-123. The health care provider would add up to 2 ml. of sterile normal saline. The desired dose would be withdrawn and measured in a dose calibrator of a type manufactured by Capintec of Montville, N.J. If the glass vial is measured in the dose calibrator, the person measuring the dose must recognize that the glass vial will decrease the apparent activity. Upon calibration of the desired dose, the I-123 MIBG now re-dissolved in the solution is promptly administered to the patient. The advantages are that the flash freezing and lowering of vapor pressure result in quick formation and evaporation or sublimation (evaporation from ice to water vapour (a gas)) of water from the I-123 MIBG. The I-123 MIBG need not be shipped frozen in dry ice nor need it be shipped for overnight delivery. Shipping in dry ice over a weekend is generally not commercially practical. The I-123 MIBG can be shipped over the weekend and be used on Monday while simply maintaining it at room temperature or below. In order to establish the advantages of the novel process and resulting composition, a series of tests were run utilizing meta iodo benzyl guanidine (MIBG) in which the radionuclide I-131 was the iodine in the MIBG.\nThe MIBG was prepared as follows: eight vials were prepared of MIBG in solution with a radioactive concentration of MIBG of 1 mCi per vial. The MIBG in six of those vials were then stabilized and lyophilized according to the process described in this invention. One vial was frozen and maintained at a temperature of −10 degrees, and another vial was simply refrigerated at approximately 5 degrees.\nSix vials were prepared according to the process in this invention in order to enable several to be reconstituted from the lyophilized state and their activity tallied.\nThe radioactive concentration of MIBG per vial was 1 mCi per vial.\nThe results showing the percent of iodine remaining bound to the MIBG are set forth in table I. One each of the vials was reconstituted after 24, 48, 72 and 168 hours respectively."}}, "data": [{"smiles": "O=C([O-])CNC(=O)c1ccccc1[131I].[Na+]", "note": "[Hippuran]", "values": [{"measurement": "percent of Hippuran remaining bound to the I-123", "setting": "[1]; Frozen −10°, 0 hours", "value": 98, "unit": "%"}, {"measurement": "percent of Hippuran remaining bound to the I-123", "setting": "[1]; Frozen −10°, 24 hrs", "value": 97.8, "unit": "%"}, {"measurement": "percent of Hippuran remaining bound to the I-123", "setting": "[1]; Frozen −10°, 48 hrs", "value": 97, "unit": "%"}, {"measurement": "percent of Hippuran remaining bound to the I-123", "setting": "[1]; Frozen −10°, 72 hrs", "value": 94, "unit": "%"}, {"measurement": "percent of Hippuran remaining bound to the I-123", "setting": "[1]; Frozen −10°, 96 hrs", "value": 92.5, "unit": "%"}, {"measurement": "percent of Hippuran remaining bound to the I-123", "setting": "[1]; Frozen −10°, 120 hrs", "value": 91, "unit": "%"}, {"measurement": "percent of Hippuran remaining bound to the I-123", "setting": "[1]; Lyophilized and stabilized per invention, stored at room temp., 0 hours", "value": 98, "unit": "%"}, {"measurement": "percent of Hippuran remaining bound to the I-123", "setting": "[1]; Lyophilized and stabilized per invention, stored at room temp., 24 hrs", "value": 98.4, "unit": "%"}, {"measurement": "percent of Hippuran remaining bound to the I-123", "setting": "[1]; Lyophilized and stabilized per invention, stored at room temp., 48 hrs", "value": 98.6, "unit": "%"}, {"measurement": "percent of Hippuran remaining bound to the I-123", "setting": "[1]; Lyophilized and stabilized per invention, stored at room temp., 72 hrs", "value": 98, "unit": "%"}, {"measurement": "percent of Hippuran remaining bound to the I-123", "setting": "[1]; Lyophilized and stabilized per invention, stored at room temp., 96 hrs", "value": 98.4, "unit": "%"}, {"measurement": "percent of Hippuran remaining bound to the I-123", "setting": "[1]; Lyophilized and stabilized per invention, stored at room temp., 120 hrs", "value": 98.5, "unit": "%"}, {"measurement": "percent of Hippuran remaining bound to the I-123", "setting": "[1]; Room Temp. (solution, not lyophilized), 0 hours", "value": 98, "unit": "%"}, {"measurement": "percent of Hippuran remaining bound to the I-123", "setting": "[1]; Room Temp. (solution, not lyophilized), 24 hrs", "value": 96, "unit": "%"}, {"measurement": "percent of Hippuran remaining bound to the I-123", "setting": "[1]; Room Temp. (solution, not lyophilized), 48 hrs", "value": 95, "unit": "%"}, {"measurement": "percent of Hippuran remaining bound to the I-123", "setting": "[1]; Room Temp. (solution, not lyophilized), 72 hrs", "value": 94.5, "unit": "%"}, {"measurement": "percent of Hippuran remaining bound to the I-123", "setting": "[1]; Room Temp. (solution, not lyophilized), 96 hrs", "value": 92, "unit": "%"}, {"measurement": "percent of Hippuran remaining bound to the I-123", "setting": "[1]; Room Temp. (solution, not lyophilized), 120 hrs", "value": 90, "unit": "%"}]}, {"smiles": "N=C(N)NCc1cccc([131I])c1", "note": "[MIBG, meta iodo benzyl guanidine]", "values": [{"measurement": "percent of iodine remaining bound to the MIBG", "setting": "[2]; Frozen −10°, 24 hours", "value": 94, "unit": "%"}, {"measurement": "percent of iodine remaining bound to the MIBG", "setting": "[2]; Frozen −10°, 48 hours", "value": 91, "unit": "%"}, {"measurement": "percent of iodine remaining bound to the MIBG", "setting": "[2]; Frozen −10°, 72 hours", "value": 84, "unit": "%"}, {"measurement": "percent of iodine remaining bound to the MIBG", "setting": "[2]; Frozen −10°, 168 hours (1 wk.)", "value": 72, "unit": "%"}, {"measurement": "percent of iodine remaining bound to the MIBG", "setting": "[2]; Lyophilized and stabilized per invention, stored at room temp., 24 hours", "value": 97, "unit": "%"}, {"measurement": "percent of iodine remaining bound to the MIBG", "setting": "[2]; Refrigerated ~+5°, 24 hours", "value": 92, "unit": "%"}, {"measurement": "percent of iodine remaining bound to the MIBG", "setting": "[2]; Refrigerated ~+5°, 48 hours", "value": 85, "unit": "%"}, {"measurement": "percent of iodine remaining bound to the MIBG", "setting": "[2]; Refrigerated ~+5°, 72 hours", "value": 77, "unit": "%"}, {"measurement": "percent of iodine remaining bound to the MIBG", "setting": "[2]; Refrigerated ~+5°, 168 hours (1 wk.)", "value": 55, "unit": "%"}, {"measurement": "activity on storage", "setting": "[2]; not stabilized and lyophilized per this invention", "value": "deteriorated sharply"}]}]}
